From patent publication US10800792B2, “Inhibitors of Bruton's tyrosine kinase and method of their use” (JANSSEN PHARMACEUTICA NV, priority 2015, dated 2020) come the findings set out here.

Bounds are passed on as bounds.

For the assay, the target named is unphosphorylated-BTK kinase domain (UP-BTK), GST-tagged human BTK (389-659aa) (Homo sapiens (Human), UniProt Q06187). Nature of the assay: BTK kinase Lanthascreen binding assay. The note with it: unphosphorylated-BTK kinase domain, 50 nM Tracer 236, 60 minutes; pIC50 = negative log of the IC50 in molar. An outline of the steps: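 Tracer-displacement binding assay against the non-phosphorylated enzyme, read by Lanthascreen. Reported: pIC50.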
Chain of unphosphorylated-BTK kinase domain (UP-BTK), GST-tagged human BTK (389-659aa) (Q06187 389-659): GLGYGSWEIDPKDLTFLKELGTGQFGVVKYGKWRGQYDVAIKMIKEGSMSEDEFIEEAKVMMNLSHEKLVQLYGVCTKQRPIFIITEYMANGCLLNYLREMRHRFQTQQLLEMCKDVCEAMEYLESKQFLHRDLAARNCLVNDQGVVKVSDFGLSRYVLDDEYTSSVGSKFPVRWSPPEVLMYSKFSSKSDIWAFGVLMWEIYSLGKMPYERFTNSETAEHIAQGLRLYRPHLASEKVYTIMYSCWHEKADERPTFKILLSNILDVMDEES
(In general: Time-resolved FRET reads energy transfer from a long-lived donor to a nearby acceptor.)
`CN(C)CC(=O)N1CCC[C@@H](NC(=O)c2sc3nccc4c3c2NC(=O)N4c2ccc(Oc3ccccc3)cc2)C1` [Example 424, (R)—N-(1-(2-(Dimethylamino)acetyl)piperidin-3-yl)-4-oxo-5-(4-phenoxyphenyl)-4,5-dihydro-3H-1-thia-3,5,8-triazaacenaphthylene-2-carboxamide]: the “BTK_I_binding pIC50” value is given as 7.2.

For the compound `CN(C)CC(=O)N1CC[C@@H](NC(=O)c2sc3nccc4c3c2NC(=O)N4c2ccc(Oc3ccccc3)cc2)C1` [Example 425, (R)—N-(1-(2-(Dimethylamino)acetyl)pyrrolidin-3-yl)-4-oxo-5-(4-phenoxyphenyl)-4,5-dihydro-3H-1-thia-3,5,8-triazaacenaphthylene-2-carboxamide], the “BTK_I_binding pIC50” value turned out to be 7.3.

With `O=C(N[C@@H]1CCCNC1)c1sc2nccc3c2c1NC(=O)N3c1cccc(-c2ccccc2)c1` [Example 426, (R)-5-([1,1′-Biphenyl]-3-yl)-4-oxo-N-(piperidin-3-yl)-4,5-dihydro-3H-1-thia-3,5,8-triazaacenaphthylene-2-carboxamide], the “BTK_I_binding pIC50” value is given as 6.9.

Regarding `C=CC(=O)N1CCC[C@@H](NC(=O)c2sc3nccc4c3c2NC(=O)N4c2cc3ccccc3s2)C1` [Example 427, (R)—N-(1-Acryloylpiperidin-3-yl)-5-(benzo[b]thiophen-2-yl)-4-oxo-4,5-dihydro-3H-1-thia-3,5,8-triazaacenaphthylene-2-carboxamide], the “BTK_I_binding pIC50” value worked out at 6.3.

In the case of `O=C(N[C@@H]1CCCNC1)c1sc2nccc3c2c1NC(=O)N3c1cc2ccccc2s1` [Example 428, (R)-5-(Benzo[b]thiophen-2-yl)-4-oxo-N-(piperidin-3-yl)-4,5-dihydro-3H-1-thia-3,5,8-triazaacenaphthylene-2-carboxamide], the “BTK_I_binding pIC50” value is reported as under 5.

Take `O=C(N[C@@H]1CCCNC1)c1sc2nccc3c2c1NC(=O)N3c1ccc2ccccc2c1` [Example 429, (R)-5-(Naphthalen-2-yl)-4-oxo-N-(piperidin-3-yl)-4,5-dihydro-3H-1-thia-3,5,8-triazaacenaphthylene-2-carboxamide]: the “BTK_I_binding pIC50” value is under 5.

In the case of `O=C(N[C@@H]1CCCNC1)c1sc2nccc3c2c1NC(=O)N3c1ccc(Cc2ccccc2)cc1` [Example 430, (R)-5-(4-Benzylphenyl)-4-oxo-N-(piperidin-3-yl)-4,5-dihydro-3H-1-thia-3,5,8-triazaacenaphthylene-2-carboxamide], the “BTK_I_binding pIC50” value was determined as 6.3.

In the case of `O=C(N[C@@H]1CCCNC1)c1sc2nccc3c2c1NC(=O)N3c1ccn(Cc2ccccc2)n1` [Example 431, (R)-5-(1-Benzyl-1H-pyrazol-3-yl)-4-oxo-N-(piperidin-3-yl)-4,5-dihydro-3H-1-thia-3,5,8-triazaacenaphthylene-2-carboxamide], the “BTK_I_binding pIC50” value is recorded as under 5.

In the case of `Cc1cc(Oc2ccccc2)ccc1N1C(=O)Nc2c(C(=O)NC3(CO)CCOCC3)sc3nccc1c23` [Example 436, N-(4-(Hydroxymethyl)tetrahydro-2H-pyran-4-yl)-5-(*S)-(2-methyl-4-phenoxyphenyl)-4-oxo-4,5-dihydro-3H-1-thia-3,5,8-triazaacenaphthylene-2-carboxamide], the “BTK_I_binding pIC50” value came to 7.3.

Consider `Cc1cc(Oc2ccccc2)ccc1N1C(=O)Nc2c(C(=O)NC3(CO)CCOCC3)sc3nccc1c23` [Example 437, N-(4-(Hydroxymethyl)tetrahydro-2H-pyran-4-yl)-5-(*R)-(2-methyl-4-phenoxyphenyl)-4-oxo-4,5-dihydro-3H-1-thia-3,5,8-triazaacenaphthylene-2-carboxamide], for which the “BTK_I_binding pIC50” value is given as 5.8.

For `CN(C)C/C=C/C(=O)N1CC[C@@H](NC(=O)c2sc3nccc4c3c2NC(=O)N4c2ccc(Oc3ccccc3)cc2)C1` [Example 440, (R,E)-N-(1-(4-(Dimethylamino)but-2-enoyl)pyrrolidin-3-yl)-4-oxo-5-(4-phenoxyphenyl)-4,5-dihydro-3H-1-thia-3,5,8-triazaacenaphthylene-2-carboxamide], the “BTK_I_binding pIC50” value is reported as 7.6.

Take `C=CC(=O)N1CC[C@@H](NC(=O)c2sc3nccc4c3c2NC(=O)N4c2ccc(Oc3ccccc3)cc2)C1` [Example 443, (R)—N-(1-Acryloylpyrrolidin-3-yl)-4-oxo-5-(4-phenoxyphenyl)-4,5-dihydro-3H-1-thia-3,5,8-triazaacenaphthylene-2-carboxamide]: the “BTK_I_binding pIC50” value was 7.7.

Consider `C=CC(=O)N1CCC[C@@H](NC(=O)c2sc3nccc4c3c2NC(=O)N4c2ccc(C(C)C)cc2C)C1` [Example 444, (R)—N-(1-Acryloylpiperidin-3-yl)-5-(4-isopropyl-2-methylphenyl)-4-oxo-4,5-dihydro-3H-1-thia-3,5,8-triazaacenaphthylene-2-carboxamide], for which the “BTK_I_binding pIC50” value turned out to be 7.2.

With `C=CC(=O)N1CC[C@@H](NC(=O)c2sc3nccc4c3c2NC(=O)N4c2ccc(C(C)C)cc2C)C1` [Example 445, (R)—N-(1-Acryloylpyrrolidin-3-yl)-5-(4-isopropyl-2-methylphenyl)-4-oxo-4,5-dihydro-3H-1-thia-3,5,8-triazaacenaphthylene-2-carboxamide], the “BTK_I_binding pIC50” value was 6.7.

In the case of `Cc1cc(C(C)C)ccc1N1C(=O)Nc2c(C(=O)N[C@@H]3CCCNC3)sc3nccc1c23` [Example 446, (R)-5-(4-Isopropyl-2-methylphenyl)-4-oxo-N-(piperidin-3-yl)-4,5-dihydro-3H-1-thia-3,5,8-triazaacenaphthylene-2-carboxamide], the “BTK_I_binding pIC50” value is listed as 5.8.

As for `Cc1cc(C(C)C)ccc1N1C(=O)Nc2c(C(=O)N[C@@H]3CCCN(C)C3)sc3nccc1c23` [Example 447, (R)-5-(4-Isopropyl-2-methylphenyl)-N-(1-methylpiperidin-3-yl)-4-oxo-4,5-dihydro-3H-1-thia-3,5,8-triazaacenaphthylene-2-carboxamide], the “BTK_I_binding pIC50” value was 5.6.

Turning to `C=CC(=O)N1CCC(CNC(=O)c2sc3nccc4c3c2NC(=O)N4c2ccc(Oc3ccccc3)cc2)C1` (stereo not drawn) [Example 452, N-((1-Acryloylpyrrolidin-3-yl)methyl)-4-oxo-5-(4-phenoxyphenyl)-4,5-dihydro-3H-1-thia-3,5,8-triazaacenaphthylene-2-carboxamide], the “BTK_I_binding pIC50” value is 7.0.

As to `O=C(NCC1CCNC1)c1sc2nccc3c2c1NC(=O)N3c1ccc(Oc2ccccc2)cc1` (stereo not drawn) [Example 453, 4-Oxo-5-(4-phenoxyphenyl)-N-(pyrrolidin-3-ylmethyl)-4,5-dihydro-3H-1-thia-3,5,8-triazaacenaphthylene-2-carboxamide], the “BTK_I_binding pIC50” value was 6.4.

In the case of `O=C(N[C@@H]1CCCN(C(=O)n2ccnc2)C1)c1sc2nccc3c2c1NC(=O)N3c1ccc2c(c1)OC(F)(F)O2` [Example 454, (R)—N-(1-(1H-Imidazole-1-carbonyl)piperidin-3-yl)-5-(2,2-difluorobenzo[d][1.3]dioxol-5-yl)-4-oxo-4,5-dihydro-3H-1-thia-3,5,8-triazaacenaphthylene-2-carboxamide], the “BTK_I_binding pIC50” value is under 5.

In the case of `C=CC(=O)N1CCC[C@@H](NC(=O)c2sc3nccc4c3c2NC(=O)N4c2ccc(OC)c(C(F)(F)F)c2)C1` [Example 455, (R)—N-(1-Acryloylpiperidin-3-yl)-5-(4-methoxy-3-(trifluoromethyl)phenyl)-4-oxo-4,5-dihydro-3H-1-thia-3,5,8-triazaacenaphthylene-2-carboxamide], the “BTK_I_binding pIC50” value is given as under 5.

As to `C=CC(=O)N1CCC[C@@H](NC(=O)c2sc3nccc4c3c2NC(=O)N4c2ccc(OC3CCC3)cc2C)C1` [Example 456, (R)—N-(1-Acryloylpiperidin-3-yl)-5-(4-cyclobutoxy-2-methylphenyl)-4-oxo-4,5-dihydro-3H-1-thia-3,5,8-triazaacenaphthylene-2-carboxamide], the “BTK_I_binding pIC50” value was found to be 7.7.

`C=CC(=O)N1CCC[C@@H](NC(=O)c2sc3nccc4c3c2NC(=O)N4c2ccc(OC3CCC3)cc2)C1` [Example 457, (R)—N-(1-Acryloylpiperidin-3-yl)-5-(4-cyclobutoxyphenyl)-4-oxo-4,5-dihydro-3H-1-thia-3,5,8-triazaacenaphthylene-2-carboxamide]: the “BTK_I_binding pIC50” value was 7.6.

As to `O=C(NC1CCCNC1=O)c1sc2nccc3c2c1NC(=O)N3c1ccc(Oc2ccccc2)cc1` (stereo not drawn) [Example 458, 4-Oxo-N-(2-oxopiperidin-3-yl)-5-(4-phenoxyphenyl)-4,5-dihydro-3H-1-thia-3,5,8-triazaacenaphthylene-2-carboxamide], the “BTK_I_binding pIC50” value was found to be 6.2.

Regarding `COc1ccc(N2C(=O)Nc3c(C(=O)N[C@@H]4CCCNC4)sc4nccc2c34)cc1C(F)(F)F` [Example 459, (R)-5-(4-Methoxy-3-(trifluoromethyl)phenyl)-4-oxo-N-(piperidin-3-yl)-4,5-dihydro-3H-1-thia-3,5,8-triazaacenaphthylene-2-carboxamide], the “BTK_I_binding pIC50” value is reported as under 5.

Consider `Cc1ccc(N2C(=O)Nc3c(C(=O)N[C@@H]4CCCNC4)sc4nccc2c34)cc1Cl` [Example 460, (R)-5-(3-Chloro-4-methylphenyl)-4-oxo-N-(piperidin-3-yl)-4,5-dihydro-3H-1-thia-3,5,8-triazaacenaphthylene-2-carboxamide], for which the “BTK_I_binding pIC50” value came out at 5.3.

In the case of `Cc1ccc(N2C(=O)Nc3c(C(=O)N[C@@H]4CCCNC4)sc4nccc2c34)cc1C(F)(F)F` [Example 461, (R)-5-(4-Methyl-3-(trifluoromethyl)phenyl)-4-oxo-N-(piperidin-3-yl)-4,5-dihydro-3H-1-thia-3,5,8-triazaacenaphthylene-2-carboxamide], the “BTK_I_binding pIC50” value stood at 5.0.

With `O=C(NCC1CCCO1)c1sc2nccc3c2c1NC(=O)N3c1ccc(Oc2ccccc2)cc1` (stereo not drawn) [Example 462, 4-Oxo-5-(4-phenoxyphenyl)-N-((tetrahydrofuran-2-yl)methyl)-4,5-dihydro-3H-1-thia-3,5,8-triazaacenaphthylene-2-carboxamide], the “BTK_I_binding pIC50” value was found to be 6.4.
